Laboratory results taken from patent publication US12029732B2, “Treatment of vascular and lymphatic disease” (priority 2019, dated 2024).
“Also recorded” adds a separate entry of the source.

Key:
[1] = DMSO; cited from earlier work
[2] = system: RP27M2 (Rpl27a^low/+:Mdm2^+/−) mice; experiment: PFT / c-PFT treatment of pregnant mice carrying RP27M2 embryos (high-p53 lymphedema model); format: in vivo, mouse; conditions: for ratio of mutant pups at birth: RP27M2; for ratio of mutant pups at birth / edema: mothers treated daily from E11.5; for cutaneous hemorrhaging / embryonic (in utero) lethality: RP27M2 mutants, mothers treated daily from E11.5 until delivery; for edema: RP27M2 pups
Method: (§1) All mice were maintained on a C57BL/6J background. For timed pregnancies, the first day of observed plug were recorded as day 0.5 post-coitum or embryonic day 0.5 (E0.5). Mice haploinsufficient for the ribosomal protein L27a (Rpl27^low/+) are crossed with Mdm2 or Mdm4 heterozygous mice (Mdm2^+/− or Mdm4^+/−) to generate WT, Rpl27^low/+, Mdm2^+/−, Rpl27^low/+:Mdm2^+/− (RP27M2), Mdm4^+/−, and Rpl27^low/+:Mdm4^+/− mice (RP27M4). To generate mice on a p53-deficient background, we crossed Rpl27^low/+ mice to Mdm2^−/−:p53^−/− or Mdm4^−/−:p53^−/− mice. We therefore obtained RP27M2:p53^+/− mice and RP27M4:p53^+/− mice (FIG. 8). Genotypes were determined by PCR analysis of extracted DNA from tails using published primer sets for Mdm2, Mdm4, and p53. The sex of embryos was determined by detection of Sry and Raspn genes by PCR. Animal care and euthanasia guidelines of the Colorado Institutional Animal Care and Use Committee were followed for all animal work.
(§2) A 10 mM stock of Pifithrin-α (PFT-α, Selleck Bio, cat. S2929) was diluted 1:10 in 1×PBS, protected from light and used instantly. Pregnant mice were injected intraperitoneally from E11.5 to E16.5 and subcutaneously from E17.5 until delivery at 2.2 mg/kg of weight. Animal were monitored daily post-treatment and weights were recorded after delivery.
(§3) Tissues were fixed in 4% neutral buffered paraformaldehyde, processed, and embedded in paraffin by the UCD Research Histology core. Sagittal sections (5 μm) were subjected to immunofluorescence staining (IF) as previously described and according to the manufacturer's recommendations. The primary antibodies used for IF were monoclonal mouse Prox-1 (1:50, P21936, Thermofisher Scientific, Massachusetts, USA), monoclonal rabbit Lyve-1 (1:100, ab14917, Abcam Inc., California, USA), polyclonal rabbit Ki-67 (1:1000, VP-K451, Vector Laboratories, California, USA) and mouse monoclonal p21 (1:100, sc-6246, Santa Cruz Biotechnology, California, USA) antibodies. We used anti-rabbit or anti-mouse Alexa Fluor 594 or Alexa Fluor 488 conjugated secondary antibodies (1:1000, Invitrogen, California, USA), captured the images on a Nikon Eclipse 90i, and quantified using the ImageJ software. Pediatric lymphatic edema was categorized using the ISSVA Classification of Vascular Anomalies and confirmed by PdPn (D2-40 antibody, Ventana or RnD Systems AF3670) staining. IHC for p53 on human tissues were performed using the D-07 antibody (Ventana) on automated strainers (Ventana Ultra) following the manufacturer's recommendations and Clinical Laboratory Improvement Amendments (CLIA) certified procedures. For the visualization of the three-dimensional lymphatic vasculature, murine skin were fixed in 4% Paraformaldehyde (PFA) for 2-4 hours at room temperature for whole mount staining. Tissues were then subjected to procedures as published. H&E was performed following Harris protocols for staining.
(§4) To confirm the contribution of p53 overexpression to lymphedema, a pharmacological approach was used by testing a known reversible p53 negative modulator, Pifithrin-α (PFT). For this, time mating of Rpl27^low/+ mice was set up with Mdm2^+/−, or Mdm4^+/−, mice. Females carrying both models were injected intraperitoneally (IP) daily from E11.5 to […] and their weight gain was recorded until delivery. […] 100% of PFT-RP27M4 mice died did shortly after birth. […] It was speculated that the extent of phenotypic rescue at the low PFT dose used may be determined by the severity of the presentation. Therefore, increasing the amount of PFT given to the RP27M4 carrying mothers may allow for RP27M4 pups to survive.

[3] = system: RP27M4 (Rpl27a^low/+:Mdm4^+/−) mice; experiment: PFT / c-PFT treatment of pregnant mice carrying RP27M4 embryos (high-p53 lymphedema model); format: in vivo, mouse; conditions: for ratio of mutant pups at birth: RP27M4; for ratio of mutant pups at birth / edema: mothers treated daily from E11.5; for cutaneous hemorrhaging / embryonic (in utero) lethality: RP27M4 mutants, mothers treated daily from E11.5 until delivery; for edema: RP27M4 pups
Method: as §1, §2, §3, §4

For Br.Cc1ccc(C(=O)Cn2c3c(sc2=N)CCCC3)cc1 [PFT, 2-[2-Imino-4,5,6,7-tetrahydrobenzothiazol-3-yl]-1-p-tolylethanone hydrobromide], the solubility [1] is given as “soluble”, the “appearance of treated pups compared with WT” value ([2]; PFT-RP27M2 mice) is given as “indistinguishable from WT” and the “pups survived until at least 10 days old” value ([2]; PFT-RP27M2 mice, 2.2 mg/kg to mothers) is given as 100%. For the same compound, the “subcutaneous edema, H&E staining of dorsal skin” value ([2]; RP27M2, P0 skin) was “no evident subcutaneous edema”, the “lymphatic vessel size, Lyve-1 staining of skin” value ([2]; RP27M2, postnatal day 0 (P0)) was “reverted to a normal size” and the “ratio of mutant pups at birth” value ([2]; hydrobromide) was “born following a Mendelian ratio; also recorded: born at a Mendelian ratio”. For the same compound, the “ratio of mutant pups at birth” value ([2]; listed as PFT-a, hydrobromide) was “born at Mendelian ratio”, the cutaneous hemorrhaging ([2]; hydrobromide) was “reversed symptoms of edema and hemorrhaging; also recorded: eliminates visible skin hemorrhaging; also recorded: no signs of hemorrhaging” and the “embryonic (in utero) lethality” value ([2]; hydrobromide) was “rescued; also recorded: rescues in utero lethality”. The cutaneous hemorrhaging ([2]; listed as PFT-a, hydrobromide) was “do not exhibit cutaneous hemorrhaging”, the edema ([2]; hydrobromide) was “reversed symptoms of edema and hemorrhaging” and the edema ([2]; listed as PFT-a, hydrobromide) was “do not exhibit cutaneous hemorrhaging and severe edema”. The “pups died shortly after birth” value ([3]; PFT-RP27M4 mice, 2.2 mg/kg to mothers) was 100%, the “subcutaneous edema, H&E staining of dorsal skin” value ([3]; RP27M4, P0 skin) was “no evident subcutaneous edema” and the “lymphatic vessel size, Lyve-1 staining of skin” value ([3]; RP27M4, postnatal day 0 (P0)) was “reverted to a normal size”. For the same compound, the “ratio of mutant pups at birth” value ([3]; hydrobromide) was “born following a Mendelian ratio; also recorded: born at a Mendelian ratio”, the “ratio of mutant pups at birth” value ([3]; listed as PFT-a, hydrobromide) was “born at Mendelian ratio” and the cutaneous hemorrhaging ([3]; hydrobromide) was “reversed symptoms of edema and hemorrhaging; also recorded: eliminates visible skin hemorrhaging; also recorded: no signs of hemorrhaging”. The “embryonic (in utero) lethality” value ([3]; hydrobromide) was “rescued; also recorded: rescues in utero lethality”, the cutaneous hemorrhaging ([3]; listed as PFT-a, hydrobromide) was “do not exhibit cutaneous hemorrhaging” and the postnatal survival ([3]; RP27M4 pups after PFT treatment of mothers) was “did not survive past the first day”. For the same compound, the edema ([3]; hydrobromide) was “reversed symptoms of edema and hemorrhaging; also recorded: considerably reduced” and the edema ([3]; listed as PFT-a, hydrobromide) was “do not exhibit cutaneous hemorrhaging and severe edema”.
With Br.Cc1ccc(-c2cn3c4c(sc3n2)CCCC4)cc1 [c-PFT, Cyclic pifithrin-α hydrobromide] the cutaneous hemorrhaging [2] was “eliminates visible skin hemorrhaging”, the “embryonic (in utero) lethality” value ([2]; hydrobromide) was “rescued; also recorded: rescues in utero lethality” and the cutaneous hemorrhaging [3] was “eliminates visible skin hemorrhaging”. The “embryonic (in utero) lethality” value ([3]; hydrobromide) was “rescued; also recorded: rescues in utero lethality”.
